Experimental findings from patent US6958360B2, “Attractant pheromone for the Colorado potato beetle” (The United States of America as represented by the …, priority 2001, dated 2005) are described below.

One assay deals with CPB adult antenna. Description: Coupled GC/electroantennogram detection (GC/EAD, EAG). More on the design: species or system Leptinotarsa decemlineata. As to the method:
Vertical bars represent standard errors (N=6, 3 males and 3 females).
GC/EAD analysis of volatile collections: One microlitre samples of volatile collections were injected into a Hewlett Packard™ Model 5890A gas chromatograph (GC) equipped with an HP-5 capillary column (crosslinked 5% PH ME Siloxane; film thickness 0.25 μm; length 30 m; i.d. 0.25 mm) and flame ionization detector (FID). The effluent from the column was split using a Gerstel™ GraphPack-3D/2 splitter with a ratio of ˜1 to the GC (FID): 4 to an electroantennogram preparation of a CPB adult (EAD). The EAD preparation was an adult CPB antenna removed and mounted between two glass capillary electrodes filled with 0.1M NaCl. Ag—AgCl wires in the glass capillaries. An effluent conditioning assembly to carry GC effluent over a CPB antennal preparation, hardware, and software for data collection and analyses using a computer were obtained from SYNTECH (Hilversum, the Netherlands). After an initial temperature of 50° C. held for 2 minutes following injection, the GC oven increased at 15° C./min to 235° C. which was held for 8 minutes.
Sensitivity of antennal olfactory receptors for the racemate and optical isomers of the male specific compound were tested using coupled GC/EAD and single sensillum recording techniques. GC/EAD tests involved injection of 1 μl of serial dilutions of 3,7-dimethyl-2-oxo-oct-6-ene-1,3-diol (CPB I).

Assay [1] has as its system Colorado potato beetle (CPB). Put plainly: Open Y-track olfactometer behavioral bioassay, optical isomers vs solvent control. The class given is in vivo, Leptinotarsa decemlineata. The conditions noted are these: for orientation preference (in words): serial source loads 0.0001 to 1.0 μg vs solvent control, male and female. As to the method:
Chemical blends and plant foliage were tested for behavioral activity in an open Y-track olfactometer modified after Visser and Piron (Visser, J. H., and P. G. M. Piron, Proceedings of the Section Experimental and Applied Entomology of the Netherlands Entomological Society Amsterdam, 9: 41-46 (1998)) and described in detail by Dickens (Dickens, J. C., Agric. Forest Entomol., 1: 47-54 (1999)). In brief, odorous stimuli emanating from volatile collections from CPB males feeding on potato plants or the male-specific compound on filter paper discs (2.5 cm dia.; Whatman™ #1 filter paper) in Ehrlenmeyer flasks were delivered to either side of the device. Hydrocarbon free air that was humidified by passing through distilled water carried the odor molecules to either arm of the bioassay apparatus. Treatments were replenished after 30 min of use in the bioassay apparatus. Airflow was regulated to 1 l/min by flowmeters. Experiments were conducted in a darkened room at 22° C. in which the only source of light was that associated with the bioassay device. For all bioassays, at least 20 males and 20 females were tested.
Volatile collections from male CPB feeding for three hours on a potato plant and serial dilutions of the male specific compound were tested as 10 μl aliquots placed on a filter paper disc as described above. The male specific compound was tested at 1.0 μg/10 μl solvent (hexane) and in a dilution series ranging from 0.0001 to 1.0 μg/10 μl solvent.
Prior to testing at age 7-14 days, unmated insects were held individually in 5.5 oz. cups, provided with fresh potato foliage on a continuous basis, and maintained under incubator conditions of a 16:8 light:dark cycle, 80-90% R.H., and “day” and “night” temperatures of 25° C. and 23° C., respectively. On the day of testing, insects were transferred to smaller 1 oz. cups and held for 1-3 hrs with moist filter paper but no foliage, then held in darkness for an additional 1-2 hrs.
Individual testing in a darkened room at 22° C. began by allowing the beetle to climb onto or be placed approximately midway up the vertical rod of the “T.” In response to a positive phototaxis to light from a flashlight mounted above the “T” and negative geotaxis, the beetles generally climbed upward. Once the insect began waving its antennae, presumably in response to test odors, its forward progress continued. Orientation was scored as soon as the test insect had moved completely from the horizontal to one of the 45 extension arms of the bioassay device. Following each test, the bioassay device was cleaned with acetone to remove contamination left by the insect. For any given series of tests, approximately half were done with the treatment and associated test apparatus on one side, and half were done with them on the other side.
Laboratory bioassays were assessed for significant differences by the hypothesis on binomial proportions based on the standard normal approximation (Brase, C. H., and C. P. Brase (1983), Understanding Statistics, Lexington, Mass.: D. C. Heath).

Turning to `CC(C)=CCC[C@](C)(O)C(=O)CO` [(S)-CPB I, (S)-3,7-dimethyl-2-oxo-oct-6-ene-1,3-diol], the “Mean EAG (in words)” value in the assay with CPB adult antenna (10 ng injection, males and females combined) is recorded as “significantly greater for the (S)-enantiomer than the (R)-enantiomer”. For the same compound, in the assay with CPB adult antenna (volatiles from potato plants / CPB feeding on plant), the “EAD response to compound in volatile collections (in words)” value was “a large EAD was consistently present”. In assay [1] (both sexes, from threshold through highest source load tested (1 μg)), the individuals attracted was 80% to 90. Besides, the “behavioral threshold, females” value in assay [1] (female CPB, vs solvent control) was 0.01 μg source load. Also, the “behavioral threshold, males” value in assay [1] (male CPB, vs solvent control) is 0.001 μg source load. The “orientation preference (in words)” value in assay [1] is “attractive”; in assay [1] (listed as (S)-enantiomer), “oriented preferentially”.
